Results on 20 compounds are retold here after US10745382B2 (BRISTOL-MYERS SQUIBB COMPANY, priority 2015, dated 2020).

Structures can show the parent of a compound that is named as a salt.

The target of the experiment is T1, PD-1/PD-L1 (Homo sapiens, UniProt Q9NZQ7).
T1 construct: made in house; host or cells: HEK293T
In words: PD-1/PD-L1 Homogenous Time-Resolved Fluorescence (HTRF) binding assay. The conditions noted are these: PD-L1-His 10 nM, PD-1-Ig 20 nM; value given as range class; read-out: Range or IC50. The method in brief:
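Compounds are tested for blocking the PD-1/PD-L1 interaction in dPBS supplemented with 0.1% BSA and 0.05% (v/v) Tween-20. Tagged proteins are detected with Eu-cryptate anti-Ig and APC anti-His at 1 and 20 nM final.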
For orientation: Time-resolved FRET reads energy transfer from a long-lived donor to a nearby acceptor.

T1 sequence (Q9NZQ7 with tags, fused parts or gaps): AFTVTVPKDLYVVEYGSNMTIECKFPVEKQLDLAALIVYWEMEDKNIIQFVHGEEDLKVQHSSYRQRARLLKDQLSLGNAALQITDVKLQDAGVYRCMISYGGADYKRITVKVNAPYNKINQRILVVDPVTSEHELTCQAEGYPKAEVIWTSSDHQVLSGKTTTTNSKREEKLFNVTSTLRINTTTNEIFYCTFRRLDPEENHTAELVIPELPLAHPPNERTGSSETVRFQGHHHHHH

Consider `Cc1c(COc2cc(OCc3cncc(C#N)c3)c(CN[C@](C)(CO)C(=O)O)cc2Cl)cccc1-c1cc(C#Cc2ccccc2)cc(OCCCN2CC[C@@H](O)C2)c1` [Example 3045, (R)-2-((5-chloro-2-((5-cyanopyridin-3-yl)methoxy)-4-((3′-(3-((R)-3-hydroxypyrrolidin-1-yl)propoxy)-2-methyl-5′-(phenylethynyl)-[1,1′-biphenyl]-3-yl)methoxy)benzyl)amino)-3-hydroxy-2-methylpropanoic Acid], for which the IC50 (usually the midpoint of a concentration-inhibition curve) is 2010 to 10000 nM.

Regarding `Cc1c(COc2cc(OCc3cncc(C#N)c3)c(CN3CCCC[C@H]3C(=O)O)cc2Cl)cccc1-c1cccc(OCCCN2C[C@H]3CC[C@@H](C2)O3)c1C` [Example 3046, (S)-1-(4-((3′-(3-((1R,5S)-8-oxa-3-azabicyclo[3.2.1]octan-3-yl)propoxy)-2,2′-dimethyl-[1,1′-biphenyl]-3-yl)methoxy)-5-chloro-2-((5-cyanopyridin-3-yl)methoxy)benzyl)piperidine-2-carboxylic Acid], the half-inhibitory concentration (IC50) was 0.21 to 10 nM.

In the case of `Cc1c(COc2cc(OCc3cncc(C#N)c3)c(CN3CCCC[C@H]3C(=O)O)cc2Cl)cccc1-c1cccc(OCCCN2CCO[C@@H](CO)C2)c1C` [Example 3047, (S)-1-(5-chloro-2-((5-cyanopyridin-3-yl)methoxy)-4-((3′-(3-((R)-2-(hydroxymethyl)morpholino)propoxy)-2,2′-dimethyl-[1,1′-biphenyl]-3-yl)methoxy)benzyl)piperidine-2-carboxylic Acid], the IC50 lay in the range of 0.21 to 10 nM.

For the compound `Cc1c(COc2cc(OCc3cncc(C#N)c3)c(CN3CCCC[C@H]3C(=O)O)cc2Cl)cccc1-c1cccc(OCCCN2[C@@H]3CC[C@H]2CC(O)C3)c1C` (stereo partly drawn) [Example 3048, (2S)-1-(5-chloro-2-((5-cyanopyridin-3-yl)methoxy)-4-((3′-(3-((1R,5S)-3-hydroxy-8-azabicyclo[3.2.1]octan-8-yl)propoxy)-2,2′-dimethyl-[1,1′-biphenyl]-3-yl)methoxy)benzyl)piperidine-2-carboxylic Acid], the IC50 was in the range of 0.21 to 10 nM.

Turning to `Cc1c(COc2cc(OCc3cncc(C#N)c3)c(CN3CCCC[C@H]3C(=O)O)cc2Cl)cccc1-c1cccc(OCCCN2C[C@@H](C)O[C@@H](C)C2)c1C` [Example 3049, (S)-1-(5-chloro-2-((5-cyanopyridin-3-yl)methoxy)-4-((3′-(3-((2S,6R)-2,6-dimethylmorpholino)propoxy)-2,2′-dimethyl-[1,1′-biphenyl]-3-yl)methoxy)benzyl)piperidine-2-carboxylic Acid], the IC50 is 0.21 to 10 nM.

`Cc1c(COc2cc(OCc3cncc(C#N)c3)c(CN3CCCC[C@H]3C(=O)O)cc2Cl)cccc1-c1cccc(OCCCN2CCOCC2CO)c1C` (stereo partly drawn) [Example 3050, (2S)-1-(5-chloro-2-((5-cyanopyridin-3-yl)methoxy)-4-((3′-(3-(3-(hydroxymethyl)morpholino)propoxy)-2,2′-dimethyl-[1,1′-biphenyl]-3-yl)methoxy)benzyl)piperidine-2-carboxylic Acid]: the IC50 lay in the range of 0.21 to 10 nM.

`Cc1c(COc2cc(OCc3cncc(C#N)c3)c(CN3CCCC[C@H]3C(=O)O)cc2Cl)cccc1-c1cccc(OCCCN2[C@@H]3CC[C@H]2COC3)c1C` [Example 3051, (S)-1-(4-((3′-(3-((1R,5S)-3-oxa-8-azabicyclo[3.2.1]octan-8-yl)propoxy)-2,2′-dimethyl-[1,1′-biphenyl]-3-yl)methoxy)-5-chloro-2-((5-cyanopyridin-3-yl)methoxy)benzyl)piperidine-2-carboxylic Acid]: the IC50 is 0.21 to 10 nM.

With `Cc1c(COc2cc(OCc3cncc(C#N)c3)c(CN3CCCC[C@H]3C(=O)O)cc2Cl)cccc1-c1cccc(OCCCN2C3COCC2COC3)c1C` [Example 3052, (S)-1-(4-((3′-(3-((1s,5s)-3,7-dioxa-9-azabicyclo[3.3.1]nonan-9-yl)propoxy)-2,2′-dimethyl-[1,1′-biphenyl]-3-yl)methoxy)-5-chloro-2-((5-cyanopyridin-3-yl)methoxy)benzyl)piperidine-2-carboxylic Acid], the IC50 lay within 0.21 to 10 nM.

For `COC(=O)[C@@H]1CCCCN1Cc1cc(Cl)c(OCc2cccc(-c3cccc(OCCCN4CCOCC4)c3C)c2C)cc1OCc1cccc(C#N)c1` [Example 3053, (S)-methyl 1-(5-chloro-2-((3-cyanobenzyl)oxy)-4-((2,2′-dimethyl-3′-(3-morpholinopropoxy)-[1,1′-biphenyl]-3-yl)methoxy)benzyl)piperidine-2-carboxylate, 2 TFA], the half-inhibitory concentration (IC50) lay in the range of 100 to 2000 nM.

As to `Cc1c(COc2cc(OCc3cccc(C#N)c3)c(CN3CCCC[C@H]3C(=O)O)cc2Cl)cccc1-c1cccc(OCCCN2[C@@H]3CC[C@H]2COC3)c1C` [Example 3055, (S)-1-(4-((3′-(3-((1R,5S)-3-oxa-8-azabicyclo[3.2.1]octan-8-yl)propoxy)-2,2′-dimethyl-[1,1′-biphenyl]-3-yl)methoxy)-5-chloro-2-((3-cyanobenzyl)oxy)benzyl)piperidine-2-carboxylic Acid], the half-inhibitory concentration (IC50) was in the range of 0.21 to 10 nM.

`Cc1c(COc2cc(OCc3cncc(C#N)c3)c(CN3CCCC[C@H]3C(=O)O)cc2Cl)cccc1-c1cccc(OCCCN2CCOC(c3ccccc3)C2)c1C` (stereo partly drawn) [Example 3056, (2S)-1-(5-chloro-2-((5-cyanopyridin-3-yl)methoxy)-4-((2,2′-dimethyl-3′-(3-(2-phenylmorpholino)propoxy)-[1,1′-biphenyl]-3-yl)methoxy)benzyl)piperidine-2-carboxylic Acid]: the IC50 lay within 0.21 to 10 nM.

For the compound `Cc1c(COc2cc(OCc3cncc(C#N)c3)c(CN3CCCC[C@H]3C(=O)O)cc2Cl)cccc1-c1cccc(OCCCN2CC[C@@H](F)C2)c1C` [Example 3057, (S)-1-(5-chloro-2-((5-cyanopyridin-3-yl)methoxy)-4-((3′-(3-((R)-3-fluoropyrrolidin-1-yl)propoxy)-2,2′-dimethyl-[1,1′-biphenyl]-3-yl)methoxy)benzyl)piperidine-2-carboxylic Acid], the IC50 is 0.21 to 10 nM.

Take `Cc1c(COc2cc(OCc3cncc(C#N)c3)c(CN3CCCC[C@H]3C(=O)O)cc2Cl)cccc1-c1cccc(OCCCN2CCOC(C(F)(F)F)C2)c1C` (stereo partly drawn) [Example 3058, (2S)-1-(5-chloro-2-((5-cyanopyridin-3-yl)methoxy)-4-((2,2′-dimethyl-3′-(3-(2-(trifluoromethyl)morpholino)propoxy)-[1,1′-biphenyl]-3-yl)methoxy)benzyl)piperidine-2-carboxylic Acid]: the IC50 fell in the range of 0.21 to 10 nM.

With `Cc1c(COc2cc(OCc3cncc(C#N)c3)c(CN3CCCC[C@H]3C(=O)O)cc2Cl)cccc1-c1cccc(C(=O)N2CCN(C)CC2)c1C` [Example 3059, (S)-1-(5-chloro-2-((5-cyanopyridin-3-yl)methoxy)-4-((2,2′-dimethyl-3′-(4-methylpiperazine-1-carbonyl)-[1,1′-biphenyl]-3-yl)methoxy)benzyl)piperidine-2-carboxylic Acid], the IC50 was 100 to 2000 nM.

Consider `Cc1c(COc2cc(OCc3cncc(C#N)c3)c(CN3CCCC[C@H]3C(=O)O)cc2Cl)cccc1-c1cccc(C(=O)NCCN2CC[C@@H](O)C2)c1C` [Example 3060, (S)-1-(5-chloro-2-((5-cyanopyridin-3-yl)methoxy)-4-((3′-((2-((R)-3-hydroxypyrrolidin-1-yl)ethyl)carbamoyl)-2,2′-dimethyl-[1,1′-biphenyl]-3-yl)methoxy)benzyl)piperidine-2-carboxylic Acid], for which the concentration for half-maximal inhibition (IC50) lay within 10 to 100 nM.

In the case of `Cc1c(COc2cc(OCc3cncc(C#N)c3)c(CNCCCN(C)C)cc2Cl)cccc1-c1cccc(CNCCCN(C)C)c1` [Example 3062, 5-((4-chloro-2-(((3-(dimethylamino)propyl)amino)methyl)-5-((3′-(((3-(dimethylamino)propyl)amino)methyl)-2-methyl-[1,1′-biphenyl]-3-yl)methoxy)phenoxy)methyl)nicotinonitrile], the 50% inhibitory concentration (IC50) was in the range of 100 to 2000 nM.

Regarding `Cc1c(COc2cc(OCc3cncc(C#N)c3)c(CO)cc2Cl)cccc1-c1cc(OCCCN2CC[C@@H](O)C2)cc(OCCCN2CC[C@@H](O)C2)c1` [Example 3063, 5-((5-((3′,5′-bis(3-((R)-3-hydroxypyrrolidin-1-yl)propoxy)-2-methyl-[1,1′-biphenyl]-3-yl)methoxy)-4-chloro-2-(hydroxymethyl)phenoxy)methyl)nicotinonitrile], the 50% inhibitory concentration (IC50) fell in the range of 2010 to 10000 nM.

Regarding `Cc1c(COc2cc(OCc3cncc(C#N)c3)c(CN[C@@](C)(CO)C(=O)O)cc2Cl)cccc1-c1cc(OCCCN2CC[C@@H](O)C2)cc(OCCCN2CC[C@@H](O)C2)c1` [Example 3064, (S)-2-((4-((3′,5′-bis(3-((R)-3-hydroxypyrrolidin-1-yl)propoxy)-2-methyl-[1,1′-biphenyl]-3-yl)methoxy)-5-chloro-2-((5-cyanopyridin-3-yl)methoxy)benzyl)amino)-3-hydroxy-2-methylpropanoic Acid], the IC50 is 2010 to 10000 nM.

Regarding `Cc1c(COc2cc(OCc3cncc(C#N)c3)c(CN[C@@H](CO)C(=O)O)cc2Cl)cccc1-c1cc(OCCCN2CC[C@@H](O)C2)cc(OCCCN2CC[C@@H](O)C2)c1` [Example 3065, (S)-2-((4-((3′,5′-bis(3-((R)-3-hydroxypyrrolidin-1-yl)propoxy)-2-methyl-[1,1′-biphenyl]-3-yl)methoxy)-5-chloro-2-((5-cyanopyridin-3-yl)methoxy)benzyl)amino)-3-hydroxypropanoic Acid], the IC50 fell in the range of 10 to 100 nM.

For the compound `CCOC(=O)[C@H](CO)NCc1cc(Cl)c(OCc2cccc(-c3cccc(OCCCN4CC[C@@H](O)C4)c3C)c2C)cc1OCc1cncc(C#N)c1` [Example 3066, (S)-ethyl 2-((5-chloro-2-((5-cyanopyridin-3-yl)methoxy)-4-((3′-(3-((R)-3-hydroxypyrrolidin-1-yl)propoxy)-2,2′-dimethyl-[1,1′-biphenyl]-3-yl)methoxy)benzyl)amino)-3-hydroxypropanoate], the IC50 is 0.21 to 10 nM.
